The structures appear in SMILES notation.

For the first experiment, the system named is HCV Replicon IA. Briefly: HCV replicon assay in Huh-7 cells, genotype 1a. The experiment is classed as cell-based. The note with it: Hepatitis C virus, 72 h, Huh-7 HCV replicon cells, 3 days.
In turn, `O=C(NCc1cccs1)c1nc(O)c2cc(-c3cn[nH]c3)cc(C(F)(F)F)c2n1` [Compound 49] came in with an inhibition at 10 µM of 99.7%.

The compound `Cc1cccnc1CNC(=O)c1cc(O)c2cc(-c3cn[nH]c3)cc(C(F)(F)F)c2n1` [Compound 17] showed an inhibition at 10 µM of 98.3%.

With `Nc1cc(C(=O)NCc2ccccn2)nc2c(C(F)(F)F)cc(-c3ccccc3)cc12` [Compound 68], testing at 10 µM gave an inhibition of 99.9%.

Regarding `O=C(NCc1nccs1)c1cc(O)c2cc(-c3cn[nH]c3)cc(C(F)(F)F)c2n1` [Compound 9], the inhibition at 10 µM was 98.1%.

As to `CC(NC(=O)c1cc(O)c2cc(-c3cn[nH]c3)cc(C(F)(F)F)c2n1)c1ccccn1` (centres unmarked) [Compound 20], the inhibition at 10 µM was 86.1%.

As to `O=C(NCc1ccc(Cl)s1)c1cc(O)c2cc(-c3ccoc3)cc(C(F)(F)F)c2n1` [Compound 23], the inhibition at 10 µM was determined as 99.9%.

The test system of the next experiment is HCV Replicon IB. Briefly: HCV replicon assay in Huh-7 cells, genotype 1b (Rluc luciferase readout). The experiment is classed as cell-based, hepatitis C virus. The note with it: HCV1B replicon, Huh-7 cells, 3 days; read-out: EC50_HCV1B_. (Replicon systems follow genome replication, usually without infectious particles.)
With `CC(C)(C)c1cc(C2CC2)cc2c(N)cc(C(=O)NCC3CS(=O)(=O)CCN3)nc12` (centres unmarked) [Compound 334], the EC50 turned out to be 1.71 nM.

Staying with this experiment, now noted: Hepatitis C virus, 72 h; 10 uM; 1b-Rluc replicon, Huh-7 cells, 3 days; read-out: Inhibition @ 10 uM in 1b-Rluc.
On to `CC(=O)Nc1cc(C(F)(F)F)c2nc(C(=O)NCc3ccccn3)cc(C)c2c1` [Compound 177], for which the inhibition at 10 µM stood at 94.7%.

Regarding `Nc1cc(C(=O)NCC2CS(=O)(=O)CCN2)nc2c(C(F)(F)F)cc(OC(F)F)cc12` (centres unmarked) [Compound 198], the inhibition at 10 µM stood at 98.4%.

Turning to `Cc1cc(C(=O)NCCCN2CC(O)C2)nc2c(C(F)(F)F)cc(C3CC3)cc12` [Compound 126], the inhibition at 10 µM amounted to 90.1%.

`O=C(NCC1C[S+]([O-])CCN1)c1cc(Cl)c2cc(OC(F)F)cc(C(F)(F)F)c2n1` (centres unmarked) [Compound 196]: the inhibition at 10 µM turned out to be 55%.

Turning to `Cc1cc(C(=O)NCC2(N)CC2)nc2c(C(F)(F)F)cc(C3CC3)cc12` [Compound 88], the inhibition at 10 µM turned out to be 95.6%.

For `COc1cc(C(F)(F)F)c2nc(-c3nnc(NCCCO)o3)cc(C)c2c1` [Compound 277], the inhibition at 10 µM amounted to 98.2%.

Consider `Cc1cc(-c2nnc(NCCC(C)O)s2)nc2c(C(F)(F)F)cc(C3CC3)cc12` (centres unmarked) [Compound 302], for which the inhibition at 10 µM turned out to be 99.9%.

As for `C#Cc1cc(C(F)(F)F)c2nc(C(=O)NCc3ccccn3)cc(C)c2c1` [Compound 146], the inhibition at 10 µM was 99.4%.

As for `Cc1cc(-c2nnc(NCC3COCCN3)s2)nc2c(C(F)(F)F)cc(C3CC3)cc12` (centres unmarked) [Compound 299], the inhibition at 10 µM was found to be 98%.

Regarding `Cc1cc(-c2nnc(NCc3ccccn3)o2)nc2c(C(F)(F)F)cc(C3CC3)cc12` [Compound 254], the inhibition at 10 µM turned out to be 99.7%.

In the case of `CNC(=O)CNC(=O)c1cc(C)c2cc(C3CC3)cc(C(F)(F)F)c2n1` [Compound 116], the inhibition at 10 µM is 97.2%.

In the case of `Cc1cc(C(=O)NCC2CCCCN2C(=O)OC(C)(C)C)nc2c(C(F)(F)F)cc(C3CC3)cc12` (centres unmarked) [Compound 107], the inhibition at 10 µM came to 94.5%.

As for `COCCNC(=O)c1cc(C)c2cc(C3CC3)cc(C(F)(F)F)c2n1` [Compound 119], the inhibition at 10 µM came to 99.5%.

`Cc1cc(-c2nnc(NCC3CCS(=O)(=O)C3)o2)nc2c(C(F)(F)F)cc(C3CC3)cc12` (centres unmarked) [Compound 266]: the inhibition at 10 µM is 90.6%.

In the case of `Cc1cc(C(=O)NCC2CCCCC2)nc2c(C(F)(F)F)cc(-c3ccccc3)cc12` [Compound 172], the inhibition at 10 µM stood at 95.2%.

For the compound `O=C(NCc1ccccn1)c1cc(C2CC2)c2cc(C3CC3)cc(C(F)(F)F)c2n1` [Compound 214], the inhibition at 10 µM came to 92.6%.

As for `Cc1cc(C(=O)NCCC#N)nc2c(C(F)(F)F)cc(-c3ccccc3)cc12` [Compound 104], the inhibition at 10 µM is 70.3%.

For `Cc1cc(C(=O)NCc2ccccn2)nc2c(OC(F)(F)F)cc(C3CC3)cc12` [Compound 234], the inhibition at 10 µM came out at 100%.

As for `Cc1cc(C(=O)NCc2ccccn2)nc2c(C(F)(F)F)cc(C#N)cc12` [Compound 144], the inhibition at 10 µM stood at 57.9%.

As for `Cc1cc(C(=O)NCC2OCCO2)nc2c(C(F)(F)F)cc(C3CC3)cc12` [Compound 96], the inhibition at 10 µM was determined as 99.9%.

In the case of `CC(C)(C)c1cc(C2CC2)cc2c(Cl)cc(C(=O)NCC3COCCN3)nc12` (centres unmarked) [Compound 228], the inhibition at 10 µM stood at 94.7%.

For the compound `C=C(C)c1cc(C(F)(F)F)c2nc(C(=O)NCc3ccccn3)cc(C)c2c1` [Compound 156], the inhibition at 10 µM stood at 99.6%.

With `Cc1cc(-c2nnc(Nc3ccccc3)o2)nc2c(C(F)(F)F)cc(C3CC3)cc12` [Compound 242], the inhibition at 10 µM was found to be 100%.

Consider `O=C(NCC1(O)CC1)c1cc(Cl)c2cc(C3CC3)cc(C(F)(F)F)c2n1` [Compound 211], for which the inhibition at 10 µM was 94.8%.

The experiment is the same for the next values; noted with them: Hepatitis C virus, 72 h; 10 μM; Huh-7 HCV replicon cells, 3 days; read-out: % inhibition @ 10 μM HCV Replicon IB.
With `O=C(NCc1cccs1)c1nc(O)c2cc(-c3cn[nH]c3)cc(C(F)(F)F)c2n1` [Compound 49], the inhibition at 10 µM amounted to 99%.

For the compound `Cc1cccnc1CNC(=O)c1cc(O)c2cc(-c3cn[nH]c3)cc(C(F)(F)F)c2n1` [Compound 17], the inhibition at 10 µM was 96.4%.

As to `Nc1cc(C(=O)NCc2ccccn2)nc2c(C(F)(F)F)cc(-c3ccccc3)cc12` [Compound 68], the inhibition at 10 µM is 99.7%.

As for `O=C(NCc1nccs1)c1cc(O)c2cc(-c3cn[nH]c3)cc(C(F)(F)F)c2n1` [Compound 9], the inhibition at 10 µM came to 98.5%.

For `CC(NC(=O)c1cc(O)c2cc(-c3cn[nH]c3)cc(C(F)(F)F)c2n1)c1ccccn1` (centres unmarked) [Compound 20], the inhibition at 10 µM was 89%.

Take `O=C(NCc1ccc(Cl)s1)c1cc(O)c2cc(-c3ccoc3)cc(C(F)(F)F)c2n1` [Compound 23]: the inhibition at 10 µM came out at 99.4%.

The experiment is the same for the next values; noted with them: Hepatitis C virus, Huh-7, 72 h, HCV1B replicon, Huh-7 cells, 3 days; read-out: EC50_HCV1B_.
For `Cc1cc(-c2nnc(NCC3OCCO3)o2)nc2c(C3(C)OCCO3)cc(C3CC3)cc12` [Compound 540], the EC50 came out at 36.6 nM.

Turning to `CCCNc1nnc(-c2cc(C)c3cc(C4CC4)cc(C(F)(F)F)c3n2)o1` [Compound 387], the EC50 came out at 3.3 nM.

`Cc1cc(-c2nnc(N[C@H]3C[C@](O)(CF)C3)o2)nc2c(C(C)(C)C)cc(OCC(F)F)cc12` [Compound 528]: the EC50 turned out to be 0.41 nM.

Take `CO[C@H]1CN[C@H](CNC(=O)c2nc(N)c3cc(C4CC4)cc(C(C)(C)C)c3n2)C1` [Compound 432]: the EC50 turned out to be 83.3 nM.

As to `CO[C@@H]1CNC(CNC(=O)c2cc(C)c3cc(C4CC4)cc(OC(F)(F)F)c3n2)C1` (some centres unmarked) [Compound 438], the EC50 was found to be 46 nM.

Take `Cc1cc(-c2nnc(N[C@H]3CC[C@@H](O)C3)o2)nc2c(C(C)(C)C)cc(C3CC3)cc12` [Compound 414]: the EC50 worked out at 1.74 nM.

With `Cc1cc(-c2nnc(NCC3CC(F)(F)CN3)s2)nc2c(C(F)(F)F)cc(C3CC3)cc12` (centres unmarked) [Compound 310], the EC50 came to 1570 nM.

For `Cc1cc(-c2nnc(NC[C@H]3C[C@@H](O)C3)o2)nc2c(C(C)(C)C)cc(C3CC3)cc12` [Compound 417], the EC50 amounted to 6.11 nM.

For `Cc1cc(-c2nnc(Nc3cn[nH]c3)o2)nc2c(C(C)(C)C)cc(C3CC3)cc12` [Compound 400], the EC50 is 75.5 nM.

Turning to `CO[C@@H]1CN[C@H](CNC(=O)c2nc(N)c3cc(-c4ccccc4)cc(C(F)(F)F)c3n2)C1` [Compound 436], the EC50 came to 589 nM.

Turning to `Cc1cc(C(=O)NC[C@@H]2CS(=O)(=O)CCN2)nc2c(C(C)(C)C)cc(OCC(F)(F)F)cc12` [Compound 509], the EC50 was found to be 3.61 nM.

In the case of `CC(C)(C)c1cc(C2CC2)cc2c(N)cc(C(=O)NCc3ncccn3)nc12` [Compound 319], the EC50 stood at 0.81 nM.

For `Cc1cc(-c2nnc(NCCCS(N)(=O)=O)s2)nc2c(C(F)(F)F)cc(C3CC3)cc12` [Compound 309], the EC50 was 7090 nM.

On to `CS(=O)(=O)N1CCNC(CNC(=O)c2cc(N)c3cc(OC(F)F)cc(C(F)(F)F)c3n2)C1` (centres unmarked) [Compound 318], for which the EC50 turned out to be 44400 nM.

For `Cc1cc(-c2nnc(NCC3(CO)CC3)s2)nc2c(C(F)(F)F)cc(C3CC3)cc12` [Compound 306], the EC50 was 1410 nM.

Consider `Cc1cc(-c2nnc(NCCC(C)(C)O)o2)nc2c(C(C)(C)C)cc(OCC(F)(F)F)cc12` [Compound 449], for which the EC50 was 11.3 nM.

Take `CC(C)(O)CCNc1nnc(-c2cc(N)c3cc(C4CC4)cc(C(C)(C)C)c3n2)s1` [Compound 383]: the EC50 amounted to 4.85 nM.

For `CCCCNC(=O)[C@@H]1CSC(c2cc(C)c3cc(OC(F)F)cc(C(F)(F)F)c3n2)=N1` [Compound 340], the EC50 was 3900 nM.

Turning to `Cc1cc(-c2nnc(N[C@H]3C[C@H](O)C3)o2)nc2c(C(C)(C)C)cc(OCC(F)(F)F)cc12` [Compound 463], the EC50 amounted to 3.76 nM.

Regarding `Cc1cc(-c2nnc(NCC[C@@H](C)O)o2)nc2c(C(C)(C)C)cc(OCC(F)(F)F)cc12` [Compound 455], the EC50 turned out to be 3.05 nM.

As for `Cc1cc(-c2nnc(NC3CC(O)(C(F)(F)F)C3)o2)nc2c(C(C)(C)C)cc(OCC(F)(F)F)cc12` (centres unmarked) [Compound 469], the EC50 is 115 nM.

In the case of `Cc1cc(-c2nnc(NCc3ccn[nH]3)o2)nc2c(C(C)(C)C)cc(OCC(F)(F)F)cc12` [Compound 452], the EC50 amounted to 19.6 nM.

In the case of `Cc1cc(-c2nnc(NCC3OCCO3)o2)nc2c(C(C)(C)O)cc(C3CC3)cc12` [Compound 542], the EC50 was 43.8 nM.

Consider `Cc1cc(-c2nnc(N[C@H]3C[C@@H](OP(=O)(O)O)C3)o2)nc2c(C(C)(C)C)cc(OCC(F)(F)F)cc12` [Compound 480], for which the EC50 came out at 1.24 nM.

On to `CC(=O)c1cc(C2CC2)cc2c(C)cc(-c3nnc(NCC4OCCO4)o3)nc12` [Compound 541], for which the EC50 came out at 18.6 nM.

`CO[C@H]1CN[C@@H](CNC(=O)c2cc(N)c3cc(C4CC4)cc(C(C)(C)C)c3n2)C1` [Compound 327]: the EC50 is 16.5 nM.

As for `Cc1cc(-c2nnc(NC[C@@H]3CCCO3)o2)nc2c(C(C)(C)C)cc(C3CC3)cc12` [Compound 398], the EC50 turned out to be 3.69 nM.

On to `CC(C)(C)c1cc(C2CC2)cc2c(N)cc(-c3nnc(NCCCO)s3)nc12` [Compound 384], for which the EC50 was determined as 3.66 nM.

Consider `Cc1cc(-c2nnc(Nc3ccccn3)o2)nc2c(C(C)(C)C)cc(OCC(F)(F)F)cc12` [Compound 458], for which the EC50 was found to be 0.83 nM.

As for `Cc1cc(-c2nnc(N[C@H]3C[C@@](O)(CF)C3)o2)nc2c(C(C)(C)C)cc(C3CC3)cc12` [Compound 516], the EC50 was found to be 7.15 nM.

For the compound `Cc1cc(C(=O)NC[C@@H]2CS(=O)(=O)CCN2)nc2c(C(C)(C)C)cc(C3CC3)cc12` [Compound 426], the EC50 came out at 6.27 nM.

With `Cc1cc(C(=O)NCC2CC(F)(F)CN2)nc2c(OC(F)(F)F)cc(C3CC3)cc12` (centres unmarked) [Compound 437], the EC50 came to 20.2 nM.

For the compound `CC(C)(C)c1cc(C2CC2)cc2c(N)cc(-c3nnc(NCC4OCCO4)o3)nc12` [Compound 342], the EC50 amounted to 2.11 nM.

Take `Nc1nc(C(=O)NCc2cnccn2)nc2c(C(F)(F)F)cc(-c3ccccc3)cc12` [Compound 435]: the EC50 is 7.84 nM.

As a reminder, the inhibition is the drop in the measured response relative to a control, in per cent.

For the origin of these results see patent US20120053148A1, “INHIBITORS OF HEPATITIS C VIRUS” (GILEAD SCIENCES, INC., priority 2010, published 2012).
